ChEMBL document CHEMBL5390223, “Strategies for the Discovery of Oxazolidinone Antibacterial Agents: Development and Future Perspectives” (J Med Chem, 2023)
≈ marks a conversion by molar mass, not a printed value.

Legend:
[1] = system: Mycobacterium tuberculosis variant bovis; test: Antimycobacterial activity against Mycobacterium tuberculosis H37Rv assessed as reduction in bacterial growth by MABA assay; type: functional
[2] = system: Mycobacterium tuberculosis variant bovis; test: Antimycobacterial activity against Mycobacterium tuberculosis H37Rv assessed as reduction in bacterial cell growth; type: functional

## CC(=O)NC[C@H]1CN(c2ccc(N3CCOCC3)c(F)c2)C(=O)O1 [LINEZOLID]
[1]
  MIC: 0.5 µg/mL (≈ 1.48 µM)

## CC(=O)NC[C@H]1CN(c2ccc(N3CCSCC3)c(F)c2)C(=O)O1 [SUTEZOLID]
[2]
  MIC: 0.125 µg/mL (≈ 0.354 µM)
